According to PubChem BioAssay (NCI):
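Protocol summary: plate cells (96-well), add compound at 5 concentrations, incubate 48 h, interpolate endpoints linearly. GI50: concentration for 50% inhibition of growth. TGI is the concentration that stops growth completely.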

Columns and labels:
Assay in all cases: NCI-60 cell line screen, 48 h
[1] = system: SR leukemia
[2] = system: RPMI-8226 leukemia
[3] = system: LOX IMVI melanoma
[4] = system: HCT-15 colon
[5] = system: MOLT-4 leukemia
[6] = system: HCT-116 colon
[7] = system: UACC-257 melanoma
[8] = system: SF-295 CNS
[9] = system: CCRF-CEM leukemia
[10] = system: EKVX NSCLC

SMILES | GI50 [1] [µM] | TGI [1] [µM] | GI50 [2] [µM] | TGI [2] [µM] | GI50 [3] [µM] | TGI [3] [µM] | GI50 [4] [µM] | TGI [4] [µM] | GI50 [5] [µM] | TGI [5] [µM] | GI50 [6] [µM] | TGI [6] [µM] | GI50 [7] [µM] | TGI [7] [µM] | GI50 [8] [µM] | TGI [8] [µM] | GI50 [9] [µM] | TGI [9] [µM] | TGI [10] [µM] | GI50 [10] [µM]
CCCc1nc2c(C)cc(-c3nc4ccccc4n3C)cc2n1Cc1ccc(-c2ccccc2C(=O)O)cc1 | 28.6 | > 100 | 17.3 | 95.9 | 23.2 | > 100 | 20.3 | > 100 | 32.4 | > 100 | 43.4 | > 100 | 68.4 | > 100 | 34.4 | > 100 | 22.7 | > 100 |  | 
COc1ccc([N+](=O)[O-])c(S(=O)(=O)c2ccc(Cl)cc2)n1 | 3 | > 100 | 3.38 | 51.9 | 1.98 | 4.19 | 2.05 | 5.22 | 3.59 | > 100 | 2.9 | 9.33 | 11.3 | 23.7 | 13.1 | 28 | 2.93 | 13.8 |  | 
CC(C)(C)c1ccc(C(O)c2ccc(C(C)(C)C)cc2)cc1 |  | 41.7 |  |  |  | 30.8 |  | 24.6 |  | 39.2 |  | 24.5 |  | 34 |  | 27 |  | 38.9 | 32.3 | 
C[C@@H]1C=C2C(=O)O[C@@H]3CC[C@H](C1)[C@]23O | 3.51 | 19.6 | 2.93 | 10.7 | 3.33 | 13.3 | 3 | 18.1 | 3.08 | 21 | 3.13 | 13.8 | 2.33 | 16.2 | 13.6 | 35.3 | 2.66 | 11.5 |  | 
COC1=CC(c2ccc[nH]2)=N/C1=C\c1ccc[nH]1 | 0.0222 | 1.31 | 0.0651 | 0.57 |  |  | 0.0337 | 12.3 | 0.0317 | 33.7 | 0.0238 |  | 0.375 | 9.24 | 0.58 | 3.17 | 0.0231 | 14 | 16.4 | 0.61
O=C(Nc1c(O)[nH]c(=S)[nH]c1=O)c1ccc2ccccc2n1 |  | > 100 |  | > 100 |  | > 100 |  | > 100 |  | > 100 |  | > 100 |  | > 100 |  | > 100 |  | > 100 |  | 
N#Cc1cc([N+](=O)[O-])ccc1NC(=O)C(=O)C(C(=O)/C=C/c1ccccc1)C1OC(=O)c2ccccc21 (configuration not stated) |  | > 100 |  |  |  | > 100 |  | > 100 |  |  |  | > 100 |  | > 100 |  | > 100 |  | > 100 | > 100 | 
